The results in this text go back to patent US8466170B2, “7-azaindole derivatives” (Merck Patent GmbH, priority 2008, dated 2013).

Type in all cases: biochemical
One test addresses T1, SGK1 (Homo sapiens, UniProt O00141).
T1 sequence (O00141 1-431): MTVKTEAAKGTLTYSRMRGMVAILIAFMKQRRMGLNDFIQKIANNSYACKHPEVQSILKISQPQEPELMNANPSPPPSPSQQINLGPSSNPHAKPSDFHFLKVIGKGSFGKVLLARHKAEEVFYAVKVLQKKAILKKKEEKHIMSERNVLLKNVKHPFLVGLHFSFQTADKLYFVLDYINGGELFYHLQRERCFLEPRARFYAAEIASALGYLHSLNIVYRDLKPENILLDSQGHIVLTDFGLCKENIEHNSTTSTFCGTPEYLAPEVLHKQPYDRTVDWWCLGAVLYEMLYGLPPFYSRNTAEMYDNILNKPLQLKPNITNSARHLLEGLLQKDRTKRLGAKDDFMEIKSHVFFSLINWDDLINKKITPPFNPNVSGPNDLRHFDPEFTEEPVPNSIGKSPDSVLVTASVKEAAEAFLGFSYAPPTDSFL
As to the kind of experiment: SGK1 enzyme inhibition (filter binding method). Particulars: Target SGK1. The text has this:
The inhibition of SGK1 protein kinase can be determined in the filter binding method.

For a further test, the target named is T2, Met kinase (Homo sapiens, UniProt P08581).
T2 construct: 6His (N); purchased Upstate 14-526; host or cells: Sf21 insect cells (S. frugiperda), baculovirus
T2 sequence (P08581 974-1390 limits assumed): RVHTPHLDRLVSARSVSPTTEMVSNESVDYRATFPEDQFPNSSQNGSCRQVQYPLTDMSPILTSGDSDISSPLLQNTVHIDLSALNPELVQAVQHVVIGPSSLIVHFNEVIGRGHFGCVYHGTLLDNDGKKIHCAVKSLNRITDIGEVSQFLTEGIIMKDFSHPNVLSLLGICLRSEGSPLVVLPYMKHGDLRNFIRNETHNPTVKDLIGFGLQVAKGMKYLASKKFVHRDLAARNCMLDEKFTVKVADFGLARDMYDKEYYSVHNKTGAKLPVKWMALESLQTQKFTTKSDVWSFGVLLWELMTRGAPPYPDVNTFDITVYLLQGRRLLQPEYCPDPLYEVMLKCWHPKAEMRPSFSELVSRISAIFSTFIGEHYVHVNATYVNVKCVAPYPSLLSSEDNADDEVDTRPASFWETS
As to the kind of experiment: Met kinase flashplate method. Particulars: Target Met kinase; read-out: Inhibition IC50 (enzyme). The source says:
According to the manufacturer's data (Met, active, Upstate, catalogue No. 14-526), Met kinase is expressed for the purposes of protein production in insect cells (Sf21; S. frugiperda) and subsequent affinity-chromatographic purification as “N-terminal 6His-tagged” recombinant human protein in a baculovirus expression vector.
The kinase activity can be measured using various available measurement systems. In the scintillation proximity method (Sorg et al., J. of Biomolecular Screening, 2002, 7, 11-19), the flashplate method or the filter binding test, the radioactive phosphorylation of a protein or peptide as substrate is measured using radioactively labelled ATP (^32P-ATP, ^33P-ATP). In the case of the presence of an inhibitory compound, a reduced radioactive signal, or none at all, can be detected. Furthermore, homogeneous time-resolved fluorescence resonance energy transfer (HTR-FRET) and fluoroescence polarisation (FP) technologies can be used as assay methods (Sills et al., J. of Biomolecular Screening, 2002, 191-214).
The test plates used are 96-well Flashplate^R microtitre plates from Perkin Elmer (Cat. No. SMP200). […] The measurement of the bound radioactivity is carried out by means of a scintillation measuring instrument (Topcount NXT, Perkin-Elmer).
The full value used is the inhibitor-free kinase reaction. […] The inhibitory values (IC50) are determined using the RS1_MTS program. […]

The target in another test is GSK3-beta (Homo sapiens, UniProt P49841). As to the kind of experiment: Measurement of the GSK3-beta activity. Particulars: Target GSK3-beta; read-out: Inhibition IC50 (enzyme). How it is done: The GSK3-beta activity can be measured analogously to WO 2008/078196. GSK3b (5-20 mU diluted in 20 mM MOPS ph 7.5, 1 mM EDTA, […], 0.01% Brj35, 5% glycerol, 0.1% beta-mercaptoethanol, 1 mg/ml of BSA) is measured against phospho-GS2 peptide ([…](PO4)EDEEE) in a final volume of 25.5 μl containing 8 mM MOPS ph 7.0, 0.2 mM EDTA, 20 μM phospho GS2 peptide, 10 mM magnesium acetate and 0.005 mM [33P-g-ATP] (50-1000 cpm/pmol) and is incubated at room temperature for 30 minutes. The assay is stopped by addition of 5 μl of 0.5 M (3%) orthophosphoric acid and is then harvested on P81 unifilter plates with a wash buffer (50 mM orthophosphoric acid).
GSK3-beta, sequence (P49841 whole entry, species assumed): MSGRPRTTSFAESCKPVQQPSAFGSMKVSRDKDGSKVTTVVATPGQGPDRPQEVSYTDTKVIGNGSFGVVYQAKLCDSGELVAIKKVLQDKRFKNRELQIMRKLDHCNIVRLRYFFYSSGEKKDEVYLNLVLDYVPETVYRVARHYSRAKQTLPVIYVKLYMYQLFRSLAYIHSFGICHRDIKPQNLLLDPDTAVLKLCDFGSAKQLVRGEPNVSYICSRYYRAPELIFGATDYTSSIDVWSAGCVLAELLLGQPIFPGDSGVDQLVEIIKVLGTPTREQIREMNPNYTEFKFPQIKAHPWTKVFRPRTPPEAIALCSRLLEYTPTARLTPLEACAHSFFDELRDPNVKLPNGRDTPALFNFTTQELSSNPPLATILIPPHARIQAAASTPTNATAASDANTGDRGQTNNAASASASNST

In the next test the target is T3, SAPK3 (Homo sapiens, UniProt P53778).
T3 sequence (P53778 1-367): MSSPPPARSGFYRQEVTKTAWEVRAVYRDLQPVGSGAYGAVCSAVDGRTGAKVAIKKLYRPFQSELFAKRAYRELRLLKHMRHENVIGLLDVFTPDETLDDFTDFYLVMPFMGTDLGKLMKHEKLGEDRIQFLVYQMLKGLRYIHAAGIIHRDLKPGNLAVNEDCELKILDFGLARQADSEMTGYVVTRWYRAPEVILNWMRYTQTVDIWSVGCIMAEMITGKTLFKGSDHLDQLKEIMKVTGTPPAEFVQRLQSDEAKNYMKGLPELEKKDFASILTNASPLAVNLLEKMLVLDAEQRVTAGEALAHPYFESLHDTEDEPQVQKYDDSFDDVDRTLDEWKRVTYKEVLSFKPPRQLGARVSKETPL
As to the kind of experiment: SAPK3 enzyme inhibition. Particulars: Target SAPK3.

Another test deals with MKK1 (Homo sapiens, UniProt Q02750). The experiment in a line: MKK1 enzyme inhibition. Particulars: Target MKK1.
MKK1, sequence (Q02750 whole entry, species assumed): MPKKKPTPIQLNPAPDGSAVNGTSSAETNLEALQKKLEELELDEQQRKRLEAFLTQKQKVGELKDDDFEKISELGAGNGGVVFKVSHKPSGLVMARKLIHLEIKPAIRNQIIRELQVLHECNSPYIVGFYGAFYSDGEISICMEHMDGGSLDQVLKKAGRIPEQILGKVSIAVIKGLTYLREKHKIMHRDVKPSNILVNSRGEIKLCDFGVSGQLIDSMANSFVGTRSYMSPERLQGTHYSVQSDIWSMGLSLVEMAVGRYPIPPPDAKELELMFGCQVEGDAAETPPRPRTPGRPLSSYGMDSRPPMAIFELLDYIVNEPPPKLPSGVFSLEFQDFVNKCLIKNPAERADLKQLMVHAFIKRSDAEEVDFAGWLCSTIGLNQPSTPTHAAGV
In another test the target is CHK2 (Homo sapiens, UniProt O96017). As to the kind of experiment: CHK2 enzyme inhibition. Particulars: Target CHK2.
CHK2, sequence (O96017 whole entry, species assumed): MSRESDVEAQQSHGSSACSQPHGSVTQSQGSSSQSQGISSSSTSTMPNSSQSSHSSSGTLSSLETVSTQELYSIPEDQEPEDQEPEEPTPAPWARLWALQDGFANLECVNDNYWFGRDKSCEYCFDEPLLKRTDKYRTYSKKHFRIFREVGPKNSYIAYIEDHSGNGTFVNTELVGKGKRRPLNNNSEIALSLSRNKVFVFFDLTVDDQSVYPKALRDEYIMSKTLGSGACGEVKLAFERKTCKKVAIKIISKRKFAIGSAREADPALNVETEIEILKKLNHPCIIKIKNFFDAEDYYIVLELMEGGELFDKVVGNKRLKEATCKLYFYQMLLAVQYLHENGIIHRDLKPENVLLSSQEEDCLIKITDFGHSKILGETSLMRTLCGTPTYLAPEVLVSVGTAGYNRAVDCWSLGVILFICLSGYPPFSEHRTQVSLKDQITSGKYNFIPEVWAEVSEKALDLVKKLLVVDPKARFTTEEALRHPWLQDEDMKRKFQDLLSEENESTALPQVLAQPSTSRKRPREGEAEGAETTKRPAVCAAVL
The target in a further test is AMPK. The experiment in a line: AMPK enzyme inhibition. Particulars: Target AMPK.

On to `COc1cccc(CNc2nnc(-c3c[nH]c4ncccc34)n2Cc2ccccc2)c1` [Compound A9, [4-benzyl-5-(1H-pyrrolo[2,3-b]pyridin-3-yl)-4H-1,2,4-triazol-3-yl]-(3-methoxybenzyl)amine], for which, on SGK1, the IC50 (usually the point on the concentration scale where inhibition reaches its midpoint) lay within 100 to 10000 nM.

Regarding `COc1cccc(CNc2nnc(-c3c[nH]c4ncc(-c5cn[nH]c5)cc34)o2)c1` [Compound A6], the IC50 on SGK1 was 100 to 10000 nM.

As to `COc1cccc(CNc2nnc(-c3c[nH]c4ncc(Br)cc34)o2)c1` [Compound A4], the IC50 was in the range of 100 to 10000 nM on Met kinase and 1 to 100 nM on SGK1.

`COc1cccc(CNc2nnc(-c3c[nH]c4ncccc34)n2N)c1` [Compound A10, N*3*-(3-methoxybenzyl)-5-(1H-pyrrolo[2,3-b]pyridin-3-yl)-1,2,4-triazole-3,4-diamine] registered an IC50 at SGK1 of 100 to 10000 nM.

In turn, `Nc1nnc(-c2c[nH]c3ncccc23)o1` [Compound A3, 5-(1H-pyrrolo[2,3-b]pyridin-3-yl)-1,3,4-oxadiazol-2-ylamine] gave an IC50 at SGK1 of 100 to 10000 nM.

Regarding `Fc1cccc(CNc2nnc(-c3c[nH]c4ncccc34)o2)c1` [Compound A5], the results for the IC50 on Met kinase and on SGK1 were 100 to 10000 nM and 1 to 100 nM, respectively.

Take `COc1cccc(CNc2nnc(-c3c[nH]c4ncccc34)o2)c1` [Compound A1, (3-methoxybenzyl)-[5-(1H-pyrrolo[2,3-b]pyridin-3-yl)-1,3,4-oxadiazol-2-yl]amine]: the IC50 at GSK3-beta fell in the range of 1 to 100 nM; against SAPK3, 100 to 10000 nM; on SGK1 it was 1 to 100 nM; against MKK1, 1 to 100 nM; on CHK2 it was 1 to 100 nM; against AMPK it was 1 to 100 nM.

Consider `c1ccc(Nc2nnc(-c3c[nH]c4ncccc34)o2)cc1` [Compound A2, phenyl-[5-(1H-pyrrolo[2,3-b]pyridin-3-yl)-1,3,4-oxadiazol-2-yl]amine], for which the IC50 on SGK1 lay in the range of 100 to 10000 nM.
